Experimental data reported in the supplement of paper PMC7840683.
± gives the standard deviation of the averaged measurements.

System: HepaRG
Assay: LDH release cytotoxicity, % of total lysis control; higher = more cytotoxic
Settings: 48 h
How it was run: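 Duplicate wells of single-lot HepaRG cells, grown on collagen I-coated 96-well plates, received eight-point half-log series of test chemicals with 100 µM as the top concentration. Exposure lasted 48 h in serum-free induction medium with 0.5% DMSO, while total lysis wells received 0.1% Triton X. Resorufin fluorescence (CytoTox-ONE, Tecan Safire) was used to quantify LDH leaked into 50 µL of spent medium. Values for percent cytotoxicity were normalized to on-plate vehicle and total lysis controls and averaged across the duplicates.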

SMILES	LDH release cytotoxicity (0.03162 µM)	LDH release cytotoxicity (0.1 µM)	LDH release cytotoxicity (0.3162278 µM)	LDH release cytotoxicity (1 µM)	LDH release cytotoxicity (3.16228 µM)	LDH release cytotoxicity (10 µM)	LDH release cytotoxicity (31.6228 µM)	LDH release cytotoxicity (100 µM)	also measured
O=[N+]([O-])c1ccccc1 [Nitrobenzene]	-0.035 ± 0.65%	-0.746 ± 0.34%	-0.739 ± 0.36%	-0.928 ± 0.55%	-1.24 ± 0.27%	-0.372 ± 0.35%	-0.298 ± 1.3%	1.13 ± 0.81%	
COc1cc(S(=O)(=O)O)c(C)cc1N=Nc1c(O)ccc2cc(S(=O)(=O)O)ccc12	-0.0925 ± 0.66%	-0.495 ± 0.4%	-0.745 ± 0.75%	-1.36 ± 1.1%	-1.42 ± 0.71%	-1.6 ± 0.25%	-1.96 ± 0.065%	-2.81 ± 0.42%	
CCCCCCCCOC(=O)c1ccc(C(=O)OCCCCCCCC)c(C(=O)OCCCCCCCC)c1 [Tri-n-octyl trimellitate]		-3.02 ± 1.1%		-1.71 ± 0.9%	-2.25 ± 0.55%	-2.21 ± 0.31%	-0.9931 ± 0.0017%	1.54 ± 0.94%	LDH release cytotoxicity (0.031623 µM): -2.2 ± 0.31%; LDH release cytotoxicity (0.316228 µM): -2.45 ± 0.77%
CCCSC(=O)N(CCC)CCC [Vernolate]	-0.794 ± 1.3%	-0.827 ± 0.35%	-0.738 ± 0.55%	-2.07 ± 0.39%	-1.14 ± 0.45%	-0.659 ± 0.55%	0.0809 ± 0.59%	1.84 ± 0.39%	
Nc1ccc2ccccc2c1 [2-Naphthylamine]	-1.06 ± 0.22%	-1.31 ± 0.37%	-0.801 ± 0.7%	-1.43 ± 0.78%	-1.16 ± 0.89%	-0.463 ± 0.054%	0.128 ± 0.57%	0.14 ± 0.74%	
O=[N+]([O-])/N=C1\NCCN1Cc1ccc(Cl)nc1 [Imidacloprid]	-2.56 ± 0.29%	-1.08 ± 1.5%	-1.14 ± 2.6%	-1.66 ± 2.5%	-1.89 ± 1.9%	-0.694 ± 1.4%	-0.538 ± 0.36%	1.58 ± 0.76%	
CCCCCCCCOc1ccc(C(=O)c2ccccc2)c(O)c1 [Octabenzone]	-0.784 ± 0.38%	-1.09 ± 0.34%	-0.164 ± 0.29%	0.7228 ± 0.0064%	0.706 ± 0.87%	0.678 ± 2.1%	1.22 ± 0.62%	1.8 ± 0.62%	
Oc1cc2ccccc2c2ccccc12 [9-Phenanthrol]	-1.97 ± 0.66%	-2.29 ± 0.44%	-2.11 ± 0.28%	-2.1 ± 0.98%	-2.21 ± 0.069%	-2.2 ± 0.41%	-2.94 ± 0.08%	0.0725 ± 0.99%	
CC(C)C1(C)N=C(c2nc3ccccc3cc2C(=O)O)NC1=O (configuration not stated) [Imazaquin]	-3.4 ± 0.27%	-3.18 ± 1.6%	-1.28 ± 0.9%	-2.88 ± 1.6%	-0.995 ± 1%	-0.807 ± 1.1%	-0.68 ± 1%	2.17 ± 0.069%	
CC1(C)CCC(=Cc2ccc(Cl)cc2)C1(O)Cn1cncn1 (configuration not stated) [Triticonazole]									LDH release cytotoxicity (0.0314647 µM): -0.271 ± 1.9%; LDH release cytotoxicity (0.0995 µM): -0.849 ± 0.067%; LDH release cytotoxicity (0.3146466 µM): -0.205 ± 0.74%; LDH release cytotoxicity (0.995 µM): -1.22 ± 0.81%; LDH release cytotoxicity (3.14647 µM): -0.364 ± 0.038%; LDH release cytotoxicity (9.95 µM): 0.229 ± 0.84%; LDH release cytotoxicity (31.4647 µM): 1.76 ± 0.041%; LDH release cytotoxicity (99.5 µM): 5.55 ± 0.43%
O=P(Oc1ccccc1)(Oc1ccccc1)Oc1ccccc1 [Triphenyl phosphate]	0.948 ± 2%	-1.27 ± 1.3%	-1.47 ± 0.34%	-1.41 ± 0.43%	-0.353 ± 0.53%	0.138 ± 0.49%	2.03 ± 0.5%	27.1 ± 4.3%	
Oc1ccc(C(c2ccc(O)cc2)C(Cl)(Cl)Cl)cc1 [2,2-Bis(4-hydroxyphenyl)-1,1,1-trichloroethane]									LDH release cytotoxicity (0.0320971 µM): 1.05 ± 0.97%; LDH release cytotoxicity (0.1015 µM): 0.207 ± 0.19%; LDH release cytotoxicity (0.320971 µM): 0.656 ± 0.4%; LDH release cytotoxicity (1.015 µM): 1.23 ± 0.62%; LDH release cytotoxicity (3.2097118 µM): 0.563 ± 0.45%; LDH release cytotoxicity (10.15 µM): 0.192 ± 0.82%; LDH release cytotoxicity (32.0971 µM): 1.16 ± 0.45%; LDH release cytotoxicity (101.5 µM): 2.4 ± 0.33%
CC(Oc1cccc(Cl)c1)C(=O)O (configuration not stated) [Cloprop]	-1.06 ± 1.4%	-0.561 ± 0.06%	-0.691 ± 0.98%	-0.434 ± 0.14%	-0.762 ± 0.08%	-0.167 ± 0.17%	-0.608 ± 0.19%	0.547 ± 0.3%	
COCCOc1cc2cc(C(=O)NC3CCN(C(C)C)CC3)n(CC(=O)Nc3ccc(Cl)cn3)c2cn1	-0.433 ± 0.89%	-0.956 ± 0.47%	-0.802 ± 0.14%	-1.56 ± 0.7%	-0.955 ± 0.44%	-0.194 ± 0.17%	13.4 ± 1%	96.77 ± 0.093%	
COC(=O)c1c(C(F)F)nc(C(F)(F)F)c(C2=NCCS2)c1CC(C)C [Thiazopyr]	-0.958 ± 2.2%	-0.18 ± 0.21%	-0.693 ± 0.24%	-0.8 ± 0.35%	-0.567 ± 0.015%	-0.719 ± 0.32%	-0.722 ± 0.28%	-0.433 ± 0.5%	
CC#Cc1cc(C)nc(Nc2ccccc2)n1 [Mepanipyrim]	-1.35 ± 0.26%	-1.3 ± 0.77%	-1.45 ± 0.36%	-1.69 ± 0.92%	-0.377 ± 0.77%	0.835 ± 1.1%	2.41 ± 0.37%	11.4 ± 0.23%	
CCC1CCC(NCc2cc3c(cc2OC)C2CC2C(=O)N3C)C(c2ccccc2)N1 (configuration not stated)	-1.16 ± 0.78%	-1.78 ± 0.18%	-0.445 ± 0.68%	-1.5 ± 1.7%	-0.96 ± 1.1%	-0.794 ± 0.26%	0.439 ± 0.24%	7.84 ± 0.41%	
OCCC(F)(F)C(F)(F)C(F)(F)C(F)(F)C(F)(F)C(F)(F)C(F)(F)C(F)(F)F [8:2 Fluorotelomer alcohol]		-0.0838 ± 1.2%		-2.22 ± 0.18%	-2.23 ± 0.56%	-1.35 ± 0.57%	-1.87 ± 0.66%	0.405 ± 2.2%	LDH release cytotoxicity (0.031623 µM): -0.581 ± 1.7%; LDH release cytotoxicity (0.316228 µM): -1.41 ± 0.61%
CC(=O)OCC=C(C)CCC=C(C)C [Geranyl acetate]		-3.48 ± 2.1%		-4.04 ± 0.45%	-4.04 ± 0.095%	-3.42 ± 0.49%	-1.98 ± 0.24%	-0.423 ± 0.54%	LDH release cytotoxicity (0.031623 µM): -1.3 ± 1.1%; LDH release cytotoxicity (0.316228 µM): -4.47 ± 1.1%
